Data taken from publication PMC10503991, “Synthesis of some new isoxazole compounds and their biological tyrosinase and antioxidant activities” (Turkish Journal of Chemistry, 2021).

Key:
[1] = DPPH free radical scavenging method; settings: concentration causing 50% scavenging of DPPH radical; Trolox standard
Method: The DPPH free radical scavenging activities of 8–14 compounds were determined using the method described before. Alcoholic solution of DPPH (1 mL, […] in methanol) was mixed with 8–14 compound solutions prepared in DMSO. […] DPPH gives a purple color in methanol. This color is decayed by antioxidant. So reduction in the absorbance indicates DPPH• scavenging activity. Trolox was used as standard radical scavenger and values were expressed as SC50 (μg compound per mL), the concentration of the samples that causes 50% scavenging of DPPH radical.

[2] = Cupric ion reducing (CUPRAC) method; settings: for CUPRAC (mg TEAC/mg): trolox equivalents per mg compound
Method: The capacity of 8–14 compounds to reduce cupric ions was established as it was described before. A reaction mixture was prepared by mixing a volume of CuCl2 (0.250 mL, 10 mM), neocuproine (0.250 mL, 7.5 mM in ethanol) and NH4Ac buffer (0.250 mL, 1 M, pH 7.0) with standard/compound solutions at different concentrations. SA blank was prepared by adding sample solution to premixed reaction mixture CuCl2. The absorbances of the blank and sample were read at 450 nm after a 30-min incubation at room temperature. The absorbance of the blank was subtracted from that of the sample. CUPRAC activity was expressed as equivalents of trolox (mg TEAC/mg compound).

mushroom tyrosinase = mushroom tyrosinase (Agaricus bisporus, UniProt C7FF04); assay: Mushroom tyrosinase inhibition assay (L-DOPA substrate, 475 nm); format: biochemical; settings: for IC50 values for the tyrosinase enzyme inhibition: abstract, unit not given; for Tyrosinase (IC50 μg/mL): mushroom tyrosinase, L-DOPA substrate, kojic acid positive control
Method: The mushroom tyrosinase inhibition assay was carried out according previously reported method. […] After 10 min of a preincubation period at room temperature, the enzymatic reaction was initiated with the addition of L-DOPA (3 mM, 20 μL) as substrate. The absorbance was read at 475 nm. The compound concentration giving 50% inhibition of tyrosinase activity was determined by interpolation of concentration-response curves. […] The extract concentration giving 50% (IC50) of the original tyrosinase activity was determined.
The position, number and nature of the substituent on benzene and pyridine rings were varied in order to identify the most appropriate group.

[3] = set-up: method as in PMID 33763478; settings: comparator in literature study; cited from earlier work

Sequence of mushroom tyrosinase (C7FF04 1-392): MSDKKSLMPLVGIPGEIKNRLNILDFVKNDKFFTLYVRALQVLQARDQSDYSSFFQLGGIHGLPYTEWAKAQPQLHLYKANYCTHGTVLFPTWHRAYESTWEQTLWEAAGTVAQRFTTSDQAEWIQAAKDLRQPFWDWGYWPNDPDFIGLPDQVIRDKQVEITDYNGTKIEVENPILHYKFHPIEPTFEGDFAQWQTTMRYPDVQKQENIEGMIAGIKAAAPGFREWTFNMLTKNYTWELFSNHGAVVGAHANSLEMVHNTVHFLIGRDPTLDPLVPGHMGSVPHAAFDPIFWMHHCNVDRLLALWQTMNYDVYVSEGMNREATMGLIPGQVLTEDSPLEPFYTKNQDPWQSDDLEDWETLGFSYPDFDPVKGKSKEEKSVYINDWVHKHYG

SMILES | melting point | IC50 values for the tyrosinase enzyme inhibition (mushroom tyrosinase) | Tyrosinase (IC50 μg/mL) (mushroom tyrosinase) | DPPH, SC50 [1] | CUPRAC (mg TEAC/mg) [2] | CUPRAC values ([2]; as printed in the results text b37) | antioxidant activity in DPPH assay IC50 [3]
COc1ccccc1-c1cc(-c2ccc(OC)c(OC)c2OC)on1 [Compound 8, 3-(2-methoxyphenyl)-5-(2,3,4-trimethoxyphenyl)isoxazole] | 102 to 103 °C | – | – | 61.42 ± 1.41 µg/mL | 1.156 ± 0.026 mg TEAC/mg | – | –
COc1ccc(-c2cc(-c3ccc(OC)cc3OC)on2)cc1 [Compound 9, 3-(4-methoxyphenyl)-5-(2,4-dimethoxyphenyl)isoxazole] | 93 to 94 °C | did not show any inhibition effect | No inhibition | 71.96 ± 2.36 µg/mL | 0.856 ± 0.013 mg TEAC/mg | – | –
COc1cccc(-c2cc(-c3ccccn3)on2)c1 [Compound 13, 3-(3-methoxyphenyl)-5-(2-pyridinyl)isoxazole] | – | – | – | 57.32 ± 2.12 µg/mL | 1.245 ± 0.019 mg TEAC/mg | 1.25 ± 0.019 mg TEAC/mg | –
Cc1c(C)c2c(c(C)c1O)CCC(C)(C(=O)O)O2 (centres unmarked) [Trolox, reference compound] | – | – | – | 5.56 ± 0.85 µg/mL | – | – | 2.75 µg/mL

The next lines start with results.

melting point | IC50 values for the tyrosinase enzyme inhibition (mushroom tyrosinase) | Tyrosinase (IC50 μg/mL) (mushroom tyrosinase) | SMILES | DPPH, SC50 [1] | CUPRAC (mg TEAC/mg) [2] | CUPRAC values ([2]; as printed in the results text b37) | antioxidant activity in DPPH assay IC50 [3]
230 to 231 °C | did not show any inhibition effect | No inhibition | Oc1cccc(-c2cc(-c3ccccc3)on2)c1 [Compound 10, 3-(3-hydroxyphenyl)-5-(phenyl)isoxazole] | 65.65 ± 1.69 µg/mL | 0.789 ± 0.009 mg TEAC/mg | – | –
168 to 169 °C | – | – | COc1ccc(-c2cc(-c3cccc(O)c3)no2)c(OC)c1 [Compound 11, 3-(3-hydroxyphenyl)-5-(2,4-dimethoxyphenyl)isoxazole] | 81.52 ± 3.66 µg/mL | 0.584 ± 0.011 mg TEAC/mg | – | –
176 to 178 °C | – | – | COc1ccc(OC)c(-c2cc(-c3ccc(O)cc3)no2)c1 [Compound 12, 3-(4-hydroxyphenyl)-5-(2,5-dimethoxyphenyl)isoxazole] | 40.21 ± 2.71 µg/mL | 1.233 ± 0.015 mg TEAC/mg | – | –
141 to 143 °C | did not show any inhibition effect | No inhibition | COc1ccc(-c2cc(-c3ccncc3)on2)cc1 [Compound 14, 3-(4-methoxyphenyl)-5-(4-pyridinyl)isoxazole] | 54.41 ± 2.87 µg/mL | 1.189 ± 0.021 mg TEAC/mg | – | –
